Assay results reported in patent US7683173B2, “Biphenyl compounds useful as muscarinic receptor antagonists” (Theravance, Inc., priority 2005, dated 2010).

Columns and labels:
[1] = biological target: T1, M3 muscarinic receptor subtype (hM3) (Homo sapiens, UniProt P20309); experiment: Radioligand binding assay ([3H]-NMS displacement); settings: tested in this or a similar assay
T1 construct: expressed in transfected cells
Procedure: CHO cell lines stably expressing cloned human hM1, hM2, hM3 and hM4 muscarinic receptor subtypes, respectively, were grown to near confluency in medium consisting of HAM's F-12 supplemented with 10% FBS and 250 μg/mL Geneticin. The cells were grown in a 5% CO2, 37° C. incubator and lifted with 2 mM EDTA in dPBS. Cells were collected by 5 minute centrifugation at 650×g, and cell pellets were either stored frozen at −80° C. or membranes were prepared immediately. For membrane preparation, cell pellets were resuspended in lysis buffer and homogenized with a Polytron PT-2100 tissue disrupter (Kinematica AG; 20 seconds×2 bursts). Crude membranes were centrifuged at 40,000×g for 15 minutes at 4° C. […] The protein concentration of the membrane suspension was determined by the method described in Lowry, O. et al., Journal of Biochemistry 193:265 (1951). […]
Radioligand binding assays were performed in 96-well microtiter plates in a total assay volume of 100 μL. […] Filter plates were rinsed three times with wash buffer (10 mM HEPES) to remove unbound radioactivity. […] The plates were then counted in a PerkinElmer Topcount liquid scintillation counter (PerkinElmer Inc., Wellesley, Mass.). Binding data were analyzed by nonlinear regression analysis with the GraphPad Prism Software package (GraphPad Software, Inc., San Diego, Calif.) using the one-site competition model. […]

[2] = Dynamic moisture sorption assessment; format: physicochemical
Procedure: A dynamic moisture sorption (DMS) assessment (also known as a moisture sorption-desorption profile) was performed for samples of the crystalline monopropionate salt using a VTI atmospheric microbalance, SGA-100 system (VTI Corp., Hialeah, Fla. 33016). A sample size of approximately 10 mg was used and the humidity was set at the ambient value at the start of the analysis. A typical DMS analysis consisted of three scans: ambient to 2% relative humidity (RH), 2% RH to 90% RH, 90% RH to 5% RH at a scan rate of 5% RH/step. The mass was measured every two minutes and the RH was changed to the next value (+/−5% RH) when the mass of the sample was stable to within 0.01% for 5 consecutive points.

Thermal analysis (DSC) = format: physicochemical; settings: DSC trace
Procedure: Differential scanning calorimetry (DSC) was performed using a TA Instruments Model Q-10 module with a Thermal Analyst controller. Data were collected and analyzed using TA Instruments Thermal Solutions software. A sample of about 1 mg was accurately weighed into an aluminum pan with lid. The sample was evaluated using a linear heating ramp of 10° C./min from ambient temperature to approximately 300° C. The DSC cell was purged with dry nitrogen during use.

T1 sequence (P20309 whole entry): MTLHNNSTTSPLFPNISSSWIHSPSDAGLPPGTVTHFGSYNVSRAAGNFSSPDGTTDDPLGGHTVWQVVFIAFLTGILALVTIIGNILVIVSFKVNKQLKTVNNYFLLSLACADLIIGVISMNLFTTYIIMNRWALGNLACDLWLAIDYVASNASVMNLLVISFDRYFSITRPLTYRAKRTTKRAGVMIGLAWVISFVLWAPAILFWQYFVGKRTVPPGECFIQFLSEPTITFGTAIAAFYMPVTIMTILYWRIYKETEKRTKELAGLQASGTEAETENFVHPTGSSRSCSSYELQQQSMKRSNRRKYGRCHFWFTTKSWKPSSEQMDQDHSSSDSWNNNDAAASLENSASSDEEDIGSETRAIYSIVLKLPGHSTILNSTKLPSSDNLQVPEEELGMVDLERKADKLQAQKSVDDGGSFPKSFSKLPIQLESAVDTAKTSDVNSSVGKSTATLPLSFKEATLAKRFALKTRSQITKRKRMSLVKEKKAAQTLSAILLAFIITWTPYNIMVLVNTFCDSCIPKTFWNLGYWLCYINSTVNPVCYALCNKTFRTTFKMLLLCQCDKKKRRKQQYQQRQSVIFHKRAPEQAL

Row | Compound | Ki [1] [nM] | hygroscopicity (sorption/desorption profile) ([2]; DMS trace) | weight gain ([2]; humidity range of 40-70% RH, micronized material) [%] | weight gain ([2]; humidity range of 40-70% RH, unmicronized) [%] | weight gain ([2]; humidity range of 40-75% RH) [%] | thermal stability (Thermal analysis (DSC))
1 | O=C(Nc1ccccc1-c1ccccc1)OC1CCN(CCCN2CCN(CCCNCc3ccc(O)cc3)C2=O)CC1 [Example 1, Biphenyl-2-ylcarbamic Acid 1-(3-{3-[3-(4-Hydroxybenzylamino)propyl]-2-oxoimidazolidin-1-yl}propyl)piperidin-4-yl Ester] | < 5 |  |  |  |  | 
2 | CCC(=O)O.O=C(Nc1ccccc1-c1ccccc1)OC1CCN(CCCN2CCN(CCCNCc3ccc(O)cc3)C2=O)CC1 [Example 2, Monopropionate Crystalline Salt of Biphenyl-2-ylcarbamic Acid 1-(3-{3-[3-(4-Hydroxybenzylamino)propyl]-2-oxoimidazolidin-1-yl}propyl)piperidin-4-yl Ester] |  | low hygroscopicity | 1.0 | 0.7 | 0.3 | good thermal stability
